Where two headings read alike, the source gives them in different places.
Legend:
[1] = design: method as in PMID 29863280, doi:10.1007/s11938-020-00330-x; settings: no signs of hepatotoxicity; cited from earlier work
[2] = system: CYP3A4; design: method as in PMID 34072547; settings: cited from earlier work
[3] = system: erosive esophagitis; design: method as in PMID 36504556; settings: 8-week treatment, patients with erosive esophagitis; cited from earlier work
[4] = system: CYP3A4/5; test: Combined contribution of CYP3A4/5 to formation of major JP-1366 metabolites; format: in vitro ADME, human; settings: sum of CYP3A4 and CYP3A5 contributions
Method: (§1) The reaction was initiated by adding 5 μL of NADPH-generating system in triplicate, and the mixture was further incubated for 30 min at 37 °C in a shaking water bath.
(§2) The concentrations of the metabolites were quantitated, and their formation rates (pmol/mg protein/min) were calculated by dividing the amounts of metabolites formed from the incubation with human liver microsomes and human cDNA-expressed CYP or UGT enzymes by the incubation time.

[5] = biological target: T1, human cDNA-expressed CYP3A4 (Homo sapiens, UniProt P08684); test: Enzyme kinetics of JP-1366 metabolism in cDNA-expressed CYP3A4; format: in vitro ADME
T1 construct: purchased Corning Life Sciences
T1 sequence (P08684 whole entry): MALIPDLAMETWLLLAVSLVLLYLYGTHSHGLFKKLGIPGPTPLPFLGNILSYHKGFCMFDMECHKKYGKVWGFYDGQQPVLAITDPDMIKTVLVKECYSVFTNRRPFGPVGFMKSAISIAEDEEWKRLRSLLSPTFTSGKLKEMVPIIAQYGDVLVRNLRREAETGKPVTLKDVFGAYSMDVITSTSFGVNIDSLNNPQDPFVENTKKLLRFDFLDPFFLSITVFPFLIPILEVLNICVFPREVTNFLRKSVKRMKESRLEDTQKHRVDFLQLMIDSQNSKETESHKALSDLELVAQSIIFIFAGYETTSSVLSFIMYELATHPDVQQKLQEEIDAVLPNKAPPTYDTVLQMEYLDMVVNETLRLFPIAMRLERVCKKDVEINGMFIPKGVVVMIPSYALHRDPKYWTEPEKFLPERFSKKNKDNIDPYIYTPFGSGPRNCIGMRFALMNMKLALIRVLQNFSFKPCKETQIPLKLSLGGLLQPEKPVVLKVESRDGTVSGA
Method: as §1, §2

[6] = system: human, dog, monkey, mouse, and rat hepatocytes; test: In vitro metabolic profiling of JP-1366 in hepatocytes; format: in vitro ADME; settings: 10 µM JP-1366, 60 min; H human, D dog, Mk monkey, M mouse, R rat
Method: Cryopreserved human, dog, monkey, mouse, and rat hepatocytes were purified and recovered according to the manufacturer’s protocol. […] The metabolic reaction in each sample well was quenched by adding 120 μL of ice-cold acetonitrile.
MS spectra were obtained in positive-ion mode using electrospray ionization under optimized conditions as follows: capillary temperature, 350 °C; sheath gas flow rate, 40 (arbitrary units); aux gas flow rate, 10 (arbitrary units); and aux gas heater temperature, 350 °C. Full MS scan with data-dependent MS/MS was performed from m/z 100 to m/z 1000.

[7] = biological target: T2, human cDNA-expressed CYP2C9 (Homo sapiens, UniProt P11712); test: Enzyme kinetics of JP-1366 metabolism in cDNA-expressed CYP2C9; format: in vitro ADME
T2 construct: purchased Corning Life Sciences
T2 sequence (P11712 whole entry): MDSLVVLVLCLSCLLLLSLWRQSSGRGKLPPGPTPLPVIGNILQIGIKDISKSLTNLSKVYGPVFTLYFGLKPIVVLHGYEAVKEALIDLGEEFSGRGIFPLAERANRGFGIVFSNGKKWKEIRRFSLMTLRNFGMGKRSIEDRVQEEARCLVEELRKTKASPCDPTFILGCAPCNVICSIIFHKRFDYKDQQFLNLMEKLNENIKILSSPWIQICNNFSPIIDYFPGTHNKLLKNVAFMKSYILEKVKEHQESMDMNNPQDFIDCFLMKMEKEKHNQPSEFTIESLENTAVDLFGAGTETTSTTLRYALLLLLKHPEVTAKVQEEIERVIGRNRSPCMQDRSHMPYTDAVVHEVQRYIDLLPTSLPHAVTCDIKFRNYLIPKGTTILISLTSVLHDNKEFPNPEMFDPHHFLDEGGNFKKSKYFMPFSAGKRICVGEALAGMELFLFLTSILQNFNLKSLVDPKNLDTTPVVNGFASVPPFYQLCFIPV
Method: as §1, §2

[8] = biological target: T3, human cDNA-expressed CYP2C19 (Homo sapiens, UniProt P33261); test: Enzyme kinetics of JP-1366 metabolism in cDNA-expressed CYP2C19; format: in vitro ADME
T3 construct: purchased Corning Life Sciences
T3 sequence (P33261 whole entry): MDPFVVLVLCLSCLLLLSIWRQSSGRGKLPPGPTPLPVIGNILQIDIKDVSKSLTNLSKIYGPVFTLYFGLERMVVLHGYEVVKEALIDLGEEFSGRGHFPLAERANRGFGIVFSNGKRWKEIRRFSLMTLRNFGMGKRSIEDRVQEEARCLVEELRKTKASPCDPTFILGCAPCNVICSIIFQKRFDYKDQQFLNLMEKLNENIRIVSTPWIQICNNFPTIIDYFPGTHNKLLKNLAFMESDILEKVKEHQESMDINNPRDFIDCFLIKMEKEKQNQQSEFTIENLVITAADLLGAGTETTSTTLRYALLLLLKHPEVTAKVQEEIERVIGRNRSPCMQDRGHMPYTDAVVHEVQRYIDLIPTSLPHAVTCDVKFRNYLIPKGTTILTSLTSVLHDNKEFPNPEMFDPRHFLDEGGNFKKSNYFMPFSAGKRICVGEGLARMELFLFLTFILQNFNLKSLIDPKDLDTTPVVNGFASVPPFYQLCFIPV
Method: as §1, §2

[9] = biological target: T4, human cDNA-expressed CYP3A5 (Homo sapiens, UniProt P20815); test: Enzyme kinetics of JP-1366 metabolism in cDNA-expressed CYP3A5; format: in vitro ADME
T4 construct: purchased Corning Life Sciences
T4 sequence (P20815 whole entry): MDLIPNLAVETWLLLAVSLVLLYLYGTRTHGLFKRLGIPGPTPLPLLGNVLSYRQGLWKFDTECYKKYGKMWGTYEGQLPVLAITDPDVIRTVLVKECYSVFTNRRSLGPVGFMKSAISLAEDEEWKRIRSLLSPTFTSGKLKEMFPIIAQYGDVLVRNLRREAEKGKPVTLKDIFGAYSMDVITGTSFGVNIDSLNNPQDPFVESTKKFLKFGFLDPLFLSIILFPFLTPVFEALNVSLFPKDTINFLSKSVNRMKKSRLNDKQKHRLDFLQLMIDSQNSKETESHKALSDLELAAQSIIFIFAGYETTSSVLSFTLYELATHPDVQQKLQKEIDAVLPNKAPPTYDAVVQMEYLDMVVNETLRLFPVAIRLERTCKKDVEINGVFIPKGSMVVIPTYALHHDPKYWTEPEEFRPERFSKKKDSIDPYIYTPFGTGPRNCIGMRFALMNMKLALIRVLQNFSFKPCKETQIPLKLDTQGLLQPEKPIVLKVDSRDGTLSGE
Method: as §1, §2

[10] = system: human liver microsomes (HLM); test: Enzyme kinetics of JP-1366 metabolism in human liver microsomes; format: in vitro ADME; settings: for Vmax: formation of the labelled metabolite from JP-1366, HLM
Method: as §1, §2

[11] = biological target: T5, human cDNA-expressed CYP2D6 (Homo sapiens, UniProt P10635); test: Enzyme kinetics of JP-1366 metabolism in cDNA-expressed CYP2D6; format: in vitro ADME
T5 construct: purchased Corning Life Sciences
T5 sequence (P10635 whole entry): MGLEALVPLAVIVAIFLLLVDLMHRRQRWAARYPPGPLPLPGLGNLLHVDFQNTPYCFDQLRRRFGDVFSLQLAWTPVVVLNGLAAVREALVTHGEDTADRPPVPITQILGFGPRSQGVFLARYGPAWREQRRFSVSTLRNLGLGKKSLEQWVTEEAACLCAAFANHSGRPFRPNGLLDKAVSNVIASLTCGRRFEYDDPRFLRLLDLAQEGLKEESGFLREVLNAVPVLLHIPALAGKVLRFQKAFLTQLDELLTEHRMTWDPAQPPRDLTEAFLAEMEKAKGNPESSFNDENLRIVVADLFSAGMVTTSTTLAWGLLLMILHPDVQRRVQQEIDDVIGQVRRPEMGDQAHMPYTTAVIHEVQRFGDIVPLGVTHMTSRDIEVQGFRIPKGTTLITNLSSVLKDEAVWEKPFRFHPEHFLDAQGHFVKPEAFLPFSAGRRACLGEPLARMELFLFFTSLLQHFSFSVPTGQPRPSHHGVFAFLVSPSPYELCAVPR
Method: as §1, §2

[12] = biological target: T6, human cDNA-expressed UGT2B17 (Homo sapiens, UniProt O75795); test: Enzyme kinetics of M1 glucuronidation to M15 in cDNA-expressed UGT2B17; format: in vitro ADME; settings: formation of M15 from M1, UGT2B17
T6 construct: purchased Corning Life Sciences
T6 sequence (O75795 24-530): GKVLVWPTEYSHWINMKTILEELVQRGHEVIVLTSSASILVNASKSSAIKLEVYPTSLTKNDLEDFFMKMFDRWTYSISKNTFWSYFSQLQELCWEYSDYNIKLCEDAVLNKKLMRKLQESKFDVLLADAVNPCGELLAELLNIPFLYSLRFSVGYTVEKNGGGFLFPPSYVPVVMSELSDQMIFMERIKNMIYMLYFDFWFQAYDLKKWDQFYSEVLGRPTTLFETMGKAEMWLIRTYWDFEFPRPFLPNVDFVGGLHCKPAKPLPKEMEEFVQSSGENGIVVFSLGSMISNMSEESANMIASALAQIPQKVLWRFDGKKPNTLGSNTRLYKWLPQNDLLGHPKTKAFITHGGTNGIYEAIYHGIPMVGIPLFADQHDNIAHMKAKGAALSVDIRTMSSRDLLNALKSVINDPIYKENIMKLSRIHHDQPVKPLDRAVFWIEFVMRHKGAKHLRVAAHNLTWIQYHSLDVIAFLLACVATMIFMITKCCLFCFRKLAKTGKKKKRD
Method: (§3) By adding 5 μL of UDPGA (final concentration, 5 mM), the reaction was initiated, and the mixture was further incubated for 30 min at 37 °C in a shaking water bath. The reaction was terminated by adding 100 μL of ice-cold acetonitrile containing 5 ng/mL of lansoprazole (IS).
as §2

[13] = biological target: T7, human cDNA-expressed UGT2B7 (Homo sapiens, UniProt P16662); test: Enzyme kinetics of M1 glucuronidation to M15 in cDNA-expressed UGT2B7; format: in vitro ADME; settings: formation of M15 from M1, UGT2B7
T7 construct: purchased Corning Life Sciences
T7 sequence (P16662 24-529): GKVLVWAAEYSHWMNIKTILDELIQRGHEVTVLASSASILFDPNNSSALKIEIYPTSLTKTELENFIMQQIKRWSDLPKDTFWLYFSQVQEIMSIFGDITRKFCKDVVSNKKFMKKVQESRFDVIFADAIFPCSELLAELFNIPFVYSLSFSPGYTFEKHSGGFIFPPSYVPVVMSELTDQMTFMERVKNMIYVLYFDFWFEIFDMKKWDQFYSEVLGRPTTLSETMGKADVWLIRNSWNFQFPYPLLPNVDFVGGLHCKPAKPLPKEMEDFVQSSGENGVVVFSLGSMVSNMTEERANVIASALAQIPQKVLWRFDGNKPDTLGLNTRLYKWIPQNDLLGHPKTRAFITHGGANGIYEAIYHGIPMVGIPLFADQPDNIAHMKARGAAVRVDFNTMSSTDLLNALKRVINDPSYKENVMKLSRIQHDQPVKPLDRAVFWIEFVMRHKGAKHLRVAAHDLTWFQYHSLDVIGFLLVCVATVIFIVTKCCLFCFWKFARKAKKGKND
Method: as §3, §2

[14] = system: human liver microsomes; test: JP-1366 metabolism in human liver microsomes with NADPH, with or without SKF-525A; format: in vitro ADME
[15] = system: human liver microsomes (HLM); test: Enzyme kinetics of M1 glucuronidation to M15 in human liver microsomes; format: in vitro ADME; settings: formation of M15 from M1, HLM
Method: as §3, §2

[16] = system: esterase; settings: 5 μM JP-1366, human liver microsomes
Method: The experimental protocols were performed in accordance with FDA guidelines and the previous reports with slight modifications. […] The reactions were stopped by adding 100 μL of lansoprazole (IS) in ice-cold acetonitrile (100 ng/mL).

[17] = Apparent permeability in Caco-2 cells; format: in vitro ADME; settings: human
Method: Caco-2 cells (passage no. 41–42) were grown in tissue culture flasks containing Dulbecco’s Modified Eagle Medium supplemented with 20% FBS, 1% nonessential amino acids, and 1% penicillin–streptomycin. […] The culture medium was replaced every other day. On the day of the experiment, the growth medium was discarded, and the attached cells were washed with prewarmed HBSS (pH 7.4) and preincubated with HBSS for 20 min at 37 °C. […] Aliquots (30 μL) of each sample were vortex-mixed with 90 μL of IS solution for 1 min, and then centrifugation was performed at 13,500 rpm at 4 °C for 5 min. Aliquots (5 μL) of the supernatant were injected into the LC-MS/MS for analysis.

[18] = cited from earlier work
[19] = system: gastric pH; settings: cited from earlier work; for % time pH > 4.0 over a period of 24 h: 40 mg dose group, healthy subjects
[20] = design: method as in PMID 16011666; settings: cited from earlier work
[21] = system: gastric pH; design: method as in PMID 35146797; settings: 50 mg of tegoprazan dose; cited from earlier work
[22] = system: gastric pH; design: method as in PMID 31437865; settings: cited from earlier work
[23] = biological target: porcine H^+/K^+-ATPase; design: method as in PMID 35745870, PMID 33355910; settings: reversible inhibition; cited from earlier work
[24] = system: CYP3A4; design: method as in PMID 35745870; settings: cited from earlier work
[25] = formation of the labelled metabolite from JP-1366, CYP3A4
[26] = formation of the labelled metabolite from JP-1366, CYP2C9
[27] = formation of the labelled metabolite from JP-1366, CYP2C19
[28] = formation of the labelled metabolite from JP-1366, CYP3A5
[29] = formation of the labelled metabolite from JP-1366, CYP2D6

CNCc1cn(S(=O)(=O)c2cccc(F)c2)c(-c2ccc(F)cc2F)c1OC [Fexuprazan]
tolerability [1]: well tolerated | contribution of CYP3A4 to formation of M11 (hydroxylation) [2]: > 60% | contribution of CYP3A4 to formation of M14 (oxidative deamination) [2]: more than 80% | erosive esophagitis healing versus esomeprazole 40 mg [3]: non-inferior

Cc1nc2c(N)cc(C(=O)N3CCC3)cn2c1C [M6, (8-amino-2,3-dimethylimidazo[1,2-a]pyridin-6-yl)(azetidin-1-yl)methanone]
contribution of CYP3A4/5 to formation of the metabolite from JP-1366 [4]: 97.0% | CLint [5, 25]: 0.77 μL/min/pmol CYP | n (Hill coefficient) [5, 25]: 1.8 | Contribution (%) ([5]; relative contribution of CYP3A4 to formation of the labelled metabolite): 28.1% | Hepatocytes (species in which the metabolite was found) [6]: H, D, Mk, M, R | CLint [7, 26]: 0.0070 μL/min/pmol CYP | n (Hill coefficient) [7, 26]: 0.7 | Contribution (%) ([7]; relative contribution of CYP2C9 to formation of the labelled metabolite): 2.8% | CLint [8, 27]: 0.0023 μL/min/pmol CYP | n (Hill coefficient) [8, 27]: 0.6 | Contribution (%) ([8]; relative contribution of CYP2C19 to formation of the labelled metabolite): 0.1% | CLint [9, 28]: 0.41 μL/min/pmol CYP | n (Hill coefficient) [9, 28]: 1.5 | Contribution (%) ([9]; relative contribution of CYP3A5 to formation of the labelled metabolite): 68.9% | Vmax [10]: 798.8 pmol/min/mg protein | Ki ([10]; substrate inhibition kinetics, formation of the labelled metabolite, HLM): 105 µM | CLint [11, 29]: 0.0015 μL/min/pmol CYP | n (Hill coefficient) [11, 29]: 0.7 | Contribution (%) ([11]; relative contribution of CYP2D6 to formation of the labelled metabolite): 0.1%

Cc1cccc(COC2OC(C(=O)O)C(O)C(O)C2O)c1CNc1cc(C(=O)N2CCC2)cn2c(C)c(C)nc12 (centres unmarked) [M15]
CLint [12]: 1.27 μL/min/mg Protein | Ki ([12]; substrate inhibition): 59 µM | Hepatocytes (species in which the metabolite was found) [6]: H, D, Mk, M, R | CLint [13]: 0.60 μL/min/mg Protein | n (Hill coefficient) [13]: 0.8 | detection of metabolite after incubation of JP-1366 in human liver microsomes with NADPH ([14]; 5 μM JP-1366): not detected | CLint [15]: 1.29 μL/min/mg Protein | Vmax [15]: 74.9 pmol/min/mg Protein | n (Hill coefficient) [15]: 1.0

Cc1cccc(C)c1CNc1cc(C(=O)O)cn2c(C)c(C)nc12 [M23, 8-((2,6-dimethylbenzyl)amino)-2,3-dimethylimidazo[1,2-a]pyridine-6-carboxylic acid]
Hepatocytes (species in which the metabolite was found) [6]: H, D, M, R | Vmax [10]: 23.2 pmol/min/mg protein

[F-].[Na+] [NaF]
inhibition of formation of M23 from JP-1366 ([16]; 100 μM NaF): 18.9% ± 3.9% | inhibition of formation of M23 from JP-1366 ([16]; 1000 μM NaF): 73.3% ± 0.3%

CC(C)NCC(O)COc1cccc2ccccc12 (centres unmarked) [Propranolol, reference compound]
Papp A→B at 1 h, 4 µM ([17]; Caco-2, pH 7.4): 9.75 ± 0.68 ×10⁻⁶ cm/s | Papp B→A at 1 h, 4 µM ([17]; Caco-2, pH 7.4): 12.2 ± 1.51 ×10⁻⁶ cm/s | efflux ratio at 1 h, 4 µM ([17]; pH 7.4, Caco-2, mean Papp,BA / mean Papp,AB, read-out: ER): 1.3

CCCC(C(=O)OCCN(CC)CC)(c1ccccc1)c1ccccc1 [SKF-525A, reference compound]
effect on formation of M23 from JP-1366 ([14]; SKF-525A 10 μM and 100 μM, human liver microsomes): not inhibited

CNCc1cc(-c2ccccc2F)n(S(=O)(=O)c2cccnc2)c1 [Vonoprazan]
pKa [18]: 9.37

COc1ccc2nc([S@@+]([O-])Cc3ncc(C)c(OC)c3C)[nH]c2c1 [esomeprazole, reference compound]
% time pH > 4.0 over a period of 24 h ([19]; MAD): 56.56% ± 22.47% | % time pH > 4.0 over a period of 24 h ([19]; SAD): 72.06% ± 13.43% | % time pH > 4 at nighttime ([19]; repeated 40 mg dose): 56.56% ± 22.47%

COc1ccc2[nH]c([S+]([O-])Cc3ncc(C)c(OC)c3C)nc2c1 (centres unmarked) [omeprazole]
plasma exposure in poor metabolizers with a CYP2C19 mutation [20]: five-fold higher

Cc1nc2cc(C(=O)N(C)C)cc(O[C@H]3CCOc4cc(F)cc(F)c43)c2[nH]1 [tegoprazan]
% time pH > 4 over a 24 h period [21]: 66.0 ± 15.7% | Cmax ([22]; 100 mg once daily, day 1): 1413 ± 24.7 ng/mL | Cmax ([22]; 100 mg once daily, day 7): 845.2 ± 40.7 ng/mL | decrease of Cmax after repeated administration compared with a single dose ([22]; 100 mg once daily): 40% | % time pH > 4 over a 24 h period ([22]; repeated oral dose of 100 mg): 70.4% | % time pH > 4 over a 24 h period ([22]; single oral dose of 50 mg, six healthy subjects): 48.9% | IC50 [23]: 0.53 µM | contribution of CYP3A4 to metabolism to active metabolite M1 [24]: about 75%
